From patent US9303042B2, “Triazolothienopyrimidine compound inhibitors of urea transporters and methods of using inhibitors” (The Regents of the University of California, priority 2012, dated 2016)
Read-outs that look alike come from different tables or passages of the source.

Columns and labels:
mice = experiment: Urinary concentration in mice; format: in vivo, mouse
Procedure: In some studies, mice were placed on low, normal or […] diets (4%, 20% or 40% casein, Harlan Labs.) for 1 week prior study of dDAVP effects. […] Urea concentration was determined by a colorimetric enzymatic assay as described above. Measurements were also done in the absence of dDAVP in which urine was collected during free access to food and water. […]

[1] = In vitro metabolic stability in hepatic microsomes; format: in vitro ADME, rat; conditions: for % Remaining after 10 min incubation with liver microsomes: compound 5 μM; for % Remaining: parent molecule after 30 min incubation with rat liver microsomes
Procedure: Compounds, each at 5 μM, were incubated for specified times at 37° C. with rat liver microsomes (1 mg protein/ml; Sigma-Aldrich, St. Louis, Mo.) in potassium phosphate buffer (100 mM) containing 1 mM NADPH. The mixture was then chilled on ice, and 0.5 ml of ice-cold ethyl acetate was added.

UT-B = biological target: T1, UT-B (Mus musculus, UniProt Q8VHL0); experiment: Erythrocyte lysis assay of UT-B inhibition; format: cell-based; parameters: Screening was performed using mouse erythrocytes, which strongly express UT-B; endogenous in cells; host or cells: erythrocytes in whole blood of wild-type CD1 mice; conditions: read-out: IC50
T1 sequence (Q8VHL0 1-384): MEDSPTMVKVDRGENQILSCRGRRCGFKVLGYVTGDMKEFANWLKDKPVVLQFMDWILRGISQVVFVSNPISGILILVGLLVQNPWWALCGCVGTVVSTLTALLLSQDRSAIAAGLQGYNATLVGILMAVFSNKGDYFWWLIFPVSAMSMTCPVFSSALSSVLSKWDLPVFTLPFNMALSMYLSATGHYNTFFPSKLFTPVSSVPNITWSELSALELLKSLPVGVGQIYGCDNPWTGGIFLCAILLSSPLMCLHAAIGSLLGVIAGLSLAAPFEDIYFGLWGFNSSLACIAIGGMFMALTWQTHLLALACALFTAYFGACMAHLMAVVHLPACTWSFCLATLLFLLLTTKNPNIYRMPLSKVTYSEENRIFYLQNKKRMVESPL
Procedure: Screening was performed using mouse erythrocytes, which strongly express UT-B and are highly water permeable because the cells also express aquaporin-1 (AQP1) water channels. The screening method involved assay of erythrocyte lysis in response to a large, outwardly directed gradient of acetamide, a urea analog that is transported efficiently by UT-B. A large, outwardly directed gradient of acetamide causes transient cell swelling, but little cell lysis, because UT-B-facilitated acetamide efflux limits water influx (see FIG. 1A). UT-B inhibition prevents acetamide efflux, allowing unopposed cell swelling and consequent cell lysis, which was recorded by reduced near-infrared light absorption at 710 nm.
Primary screening was done using a collection of 100,000 diverse, drug-like compounds from commercial sources (ChemDiv, San Diego, Calif.; Asinex, Winston-Salem, N.C.). […] Vigorous mixing was achieved by repeated pipetting. Erythrocyte lysis was quantified by absorbance at 710 nm wavelength, made within 5 min after hypo-osmolar shock. […] For analysis of structure-activity relationships >900 commercially available analogs (ChemDiv and Asinex) were tested.

[2] = LC/MS analysis of compound in mouse kidney, blood and urine; conditions: for many hours after intraperitoneal bolus 400 μg
Procedure: In some studies, mice were placed on low, normal or […] diets (4%, 20% or 40% casein, Harlan Labs.) for 1 week prior study of dDAVP effects. […] Urea concentration was determined by a colorimetric enzymatic assay as described above. Measurements were also done in the absence of dDAVP in which urine was collected during free access to food and water.
Kidneys were weighed, mixed with acetic acid (100 μL per 1 g tissue) and ethyl acetate (10 mL per 1 g tissue), and homogenized.

CFTR = biological target: T2, CFTR (Homo sapiens, UniProt P13569); experiment: CFTR chloride conductance by short-circuit current; format: cell-based; conditions: 20 μM
T2 construct: expressed in transfected cells

[3] = Table 1, commercially available analogues, erythrocyte lysis assay
[4] = Table 2, synthesized inhibitors, red blood cell lysis assay (n = 3), single-site saturation model

T2 sequence (P13569 whole entry): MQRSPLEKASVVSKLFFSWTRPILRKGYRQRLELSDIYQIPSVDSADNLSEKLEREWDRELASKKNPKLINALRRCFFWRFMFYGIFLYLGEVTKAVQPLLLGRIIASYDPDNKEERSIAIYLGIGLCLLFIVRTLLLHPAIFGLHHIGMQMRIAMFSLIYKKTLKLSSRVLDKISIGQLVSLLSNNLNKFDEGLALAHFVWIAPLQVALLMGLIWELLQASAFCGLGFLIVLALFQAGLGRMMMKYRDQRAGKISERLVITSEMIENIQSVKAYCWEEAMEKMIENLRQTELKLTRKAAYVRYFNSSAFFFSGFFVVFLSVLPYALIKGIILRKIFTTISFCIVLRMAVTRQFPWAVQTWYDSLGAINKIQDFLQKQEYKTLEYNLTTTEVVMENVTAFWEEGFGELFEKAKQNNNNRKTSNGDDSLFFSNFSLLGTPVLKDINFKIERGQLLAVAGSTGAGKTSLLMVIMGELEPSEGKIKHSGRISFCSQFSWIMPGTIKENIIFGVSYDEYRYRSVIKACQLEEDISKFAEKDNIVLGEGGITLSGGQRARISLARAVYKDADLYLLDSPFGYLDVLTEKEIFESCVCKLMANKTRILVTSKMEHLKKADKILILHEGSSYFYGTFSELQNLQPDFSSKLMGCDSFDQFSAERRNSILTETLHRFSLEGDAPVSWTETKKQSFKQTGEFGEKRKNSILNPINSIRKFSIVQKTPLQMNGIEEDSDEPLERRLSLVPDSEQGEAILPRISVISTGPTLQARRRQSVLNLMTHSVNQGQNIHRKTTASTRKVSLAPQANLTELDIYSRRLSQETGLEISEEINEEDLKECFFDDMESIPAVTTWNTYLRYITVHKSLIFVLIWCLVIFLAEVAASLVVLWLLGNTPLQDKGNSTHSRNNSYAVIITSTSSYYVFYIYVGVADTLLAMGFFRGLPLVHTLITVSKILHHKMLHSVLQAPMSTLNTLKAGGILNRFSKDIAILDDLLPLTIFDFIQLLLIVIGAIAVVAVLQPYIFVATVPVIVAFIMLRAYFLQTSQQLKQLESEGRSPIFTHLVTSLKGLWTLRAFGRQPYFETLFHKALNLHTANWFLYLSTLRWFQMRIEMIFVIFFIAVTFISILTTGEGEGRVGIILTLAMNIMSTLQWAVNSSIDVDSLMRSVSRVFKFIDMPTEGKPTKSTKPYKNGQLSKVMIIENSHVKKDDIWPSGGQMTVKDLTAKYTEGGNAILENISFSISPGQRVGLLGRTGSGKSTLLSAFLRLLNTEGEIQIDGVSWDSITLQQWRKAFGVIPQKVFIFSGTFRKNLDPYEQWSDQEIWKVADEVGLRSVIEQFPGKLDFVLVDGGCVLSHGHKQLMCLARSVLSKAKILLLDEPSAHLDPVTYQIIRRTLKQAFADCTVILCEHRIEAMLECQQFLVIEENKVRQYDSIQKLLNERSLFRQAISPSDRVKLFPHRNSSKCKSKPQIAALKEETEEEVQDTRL

Row | Compound | % Remaining after 10 min incubation with liver microsomes ([1]; NADPH) | IC50 (UT-B; [3]) | also measured
1 | [1-deamino-8-D-arginine]-vasopressin [dDAVP, reference compound] |  |  | urine osmolality after dDAVP (mice; control (formulation alone) mice): > 3 Osm/kg H2O; urine osmolality following dDAVP (mice; dDAVP 1 μg/kg intraperitoneal, over several hours): > 3000 mosm/kg H2O
2 | CCc1ccc(S(=O)(=O)c2nnn3c2nc(NCCC(C)C)c2sccc23)cc1 [Compound 2bv] | 59% | 662 nM | 
3 | O=S(=O)(c1ccc(Br)cc1)c1nnn2c1nc(NCc1cccs1)c1sccc12 [Compound 3i, [3-(4-Bromo-benzenesulfonyl)-thieno[2,3-e][1,2,3]triazolo[1,5-a]pyrimidin-5-yl]-thiophen-2-ylmethyl-amine] |  |  | metabolic stability (in words) ([1]; hepatic microsomes): improved metabolic stability; % Remaining [1]: 60%; IC50 (UT-B; [4]): 32 nM
4 | COCCNc1nc2c(S(=O)(=O)c3ccc(Cl)cc3)nnn2c2ccsc12 [Compound 2bh, {3-[4-chloro-benzenesulfonyl]-thieno[2,3-e][1,2,3]triazolo[1,5-a]pyrimidin-5-yl}-2-methoxyethyl-amine] | 63% | 1910 nM | 
5 | CCc1ccc(S(=O)(=O)c2nnn3c2nc(NCc2cccc(OC)c2)c2sccc23)cc1 [Compound 2bx, [3-(4-ethyl-benzenesulfonyl)-thieno[2,3-e][1,2,3]triazolo[1,5-a]pyrimidin-5-yl]-(3-methoxy-benzyl)-amine] | <2% | 291 nM | 
6 | CC(C)c1ccc(S(=O)(=O)c2nnn3c2nc(NCc2cccs2)c2sccc23)cc1 [Compound 3a, [3-(4-Isopropylbenzenesulfonyl)-thieno[2,3-e][1,2,3]triazolo[1,5-a]pyrimidin-5-yl]-thiophen-2-ylmethyl-amine] |  | 125 nM | % Remaining [1]: <5%; IC50 (UT-B; [4]): 153 nM
7 | CCc1ccc(S(=O)(=O)c2nnn3c2nc(NCCOC)c2sccc23)cc1 [Compound 2by, {3-[4-ethyl-benzenesulfonyl]-thieno[2,3-e][1,2,3]triazolo[1,5-a]pyrimidin-5-yl}-2-methoxyethyl-amine] | <2% | 334 nM | 
8 | O=S(=O)(c1ccc(Cl)cc1)c1nnn2c1nc(NCc1ccco1)c1sccc12 [Compound 2bf, furan-2-ylmethyl-[3-(4-chloro-benzenesulfonyl)-thieno[2,3-e][1,2,3]triazolo[1,5-a]pyrimidin-5-yl]-amine] | 21% | 1870 nM | 
9 | CCc1ccc(S(=O)(=O)c2nnn3c2nc(N(CC)CC)c2sccc23)cc1 [Compound 2bs] | 6% | 1770 nM | 
10 | COCCCNc1nc2c(S(=O)(=O)c3cc(C)ccc3C)nnn2c2ccsc12 [Compound 2cr, {3-[2,5-dimethyl-benzenesulfonyl]-thieno[2,3-e][1,2,3]triazolo[1,5-a]pyrimidin-5-yl}-3-methoxypropyl-amine] | 26% | 1400 nM | 
11 | Cc1ccc(S(=O)(=O)c2nnn3c2nc(NCc2cccs2)c2sccc23)cc1C [Compound 2bd, {3-[3,4-dimethyl-benzenesulfonyl]-thieno[2,3-e][1,2,3]triazolo[1,5-a]pyrimidin-5-yl}-thiophen-2-ylmethyl-amine] | <2% | 37 nM | 
12 | CC(F)(F)c1ccc(S(=O)(=O)c2nnn3c2nc(NCc2cccs2)c2sccc23)cc1 [Compound 3k, {3-[4-(1,1-Difluoro-ethyl)-benzenesulfonyl]-thieno[2,3-e][1,2,3]triazolo[1,5-a]pyrimidin-5-yl}-thiophen-2-ylmethyl-amine] |  |  | concentrations in blood, kidney and urine [2]: < 1000 nM; t1/2 for disappearance in hepatic microsomes ([1]; hepatic microsomes, NADPH): approximately 120 min; % Remaining [1]: 96%; stability in vitro compared to UTBinh 14 ([1]; ratio of microsomal t1/2): approximately 40 fold; reduction of urine osmolality (mice; 400 μg intraperitoneal, dDAVP 1 h later, vs formulation alone): approximately 0.5 Osm/kg H2O
13 | CCc1ccc(S(=O)(=O)c2nnn3c2nc(NCc2ccc(Cl)cc2)c2sccc23)cc1 [Compound 2bt, [3-(4-ethyl-benzenesulfonyl)-thieno[2,3-e][1,2,3]triazolo[1,5-a]pyrimidin-5-yl]-(4-chloro-benzyl)-amine] | 81% | 374 nM | metabolic stability (in words) ([1]; hepatic microsomes): improved metabolic stability
14 | CCc1ccc(S(=O)(=O)c2nnn3c2nc(NCc2ccc(F)cc2)c2sccc23)cc1 [Compound 2ca, [3-(4-ethyl-benzenesulfonyl)-thieno[2,3-e][1,2,3]triazolo[1,5-a]pyrimidin-5-yl]-(4-fluoro-benzyl)-amine] | 41% | 384 nM | 
15 | Cc1ccc(S(=O)(=O)c2nnn3c2nc(NCc2ccc(F)cc2)c2sccc23)cc1 [Compound 2aj, [3-(4-methyl-benzenesulfonyl)-thieno[2,3-e][1,2,3]triazolo[1,5-a]pyrimidin-5-yl]-(4-fluoro-benzyl)-amine] | 86% | 733 nM | metabolic stability (in words) ([1]; hepatic microsomes): improved metabolic stability
16 | CCCCNc1nc2c(S(=O)(=O)c3ccc(Br)cc3)nnn2c2ccsc12 [Compound 2cu] | 76% | 1900 nM | 
17 | CCCCNc1nc2c(S(=O)(=O)c3ccc(C(C)C)cc3)nnn2c2ccsc12 [Compound 2bm] | <2% | 191 nM | 
18 | COCCCNc1nc2c(S(=O)(=O)c3ccccc3)nnn2c2ccsc12 [Compound 2ab, {3-benzenesulfonyl-thieno[2,3-e][1,2,3]triazolo[1,5-a]pyrimidin-5-yl}-3-methoxypropyl-amine] | 27% | 4350 nM | 
19 | CFTRinh-172 [reference compound] |  |  | CFTR chloride current (CFTR): blocked
